In publication PMC5549488, “Synthesis, Characterization, Cytotoxic Activity, and Interactions with CT-DNA and BSA of Cationic Ruthenium(II) Complexes Containing Dppm and Quinoline Carboxylates” (Bioinorganic Chemistry and Applications, 2017):

Target: T1, bovine serum albumin (BSA) (Bos taurus, UniProt P02769)
T1 construct: gene ALB
Experiment: tryptophan fluorescence quenching (Stern-Volmer, double-log plot), […] K; Kb given
Assay type: binding

T1 sequence (P02769 25-607): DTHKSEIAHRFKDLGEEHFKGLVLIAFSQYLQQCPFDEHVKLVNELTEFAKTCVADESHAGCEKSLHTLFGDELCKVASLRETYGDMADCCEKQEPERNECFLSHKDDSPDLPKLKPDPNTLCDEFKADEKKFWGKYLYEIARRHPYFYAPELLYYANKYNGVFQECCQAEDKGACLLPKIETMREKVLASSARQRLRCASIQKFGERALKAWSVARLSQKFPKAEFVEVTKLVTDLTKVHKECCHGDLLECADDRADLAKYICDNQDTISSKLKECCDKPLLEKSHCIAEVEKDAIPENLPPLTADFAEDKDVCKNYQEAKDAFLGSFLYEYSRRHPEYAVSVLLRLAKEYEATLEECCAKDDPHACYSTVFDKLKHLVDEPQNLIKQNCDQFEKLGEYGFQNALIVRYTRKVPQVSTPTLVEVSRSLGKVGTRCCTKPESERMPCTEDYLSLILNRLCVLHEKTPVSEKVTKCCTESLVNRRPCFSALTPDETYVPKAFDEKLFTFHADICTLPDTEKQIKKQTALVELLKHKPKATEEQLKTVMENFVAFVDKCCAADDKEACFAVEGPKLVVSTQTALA

K b / (×10^5)	Substance
3.25 (×10^5) (Kb)	cis-[Ru(kynu)(dppm)2]PF6 [compound 2]
4.77 (×10^5) (Kb)	cis-[Ru(quin)(dppm)2]PF6 [compound 1]
